Data from patent US8592485B2, “Methods and pharmaceutical compositions for treating the animal central nervous system for psychiatric disorders” (HealthPartners Research Foundation, priority 2010, dated 2013).

Experiments:
GSK3b = test: Hippocampal pGSK3b/GSK3b ratio in C57 mice after DFO (western blot, ELISA); assay type: in vivo; conditions: hippocampus (FIG. 1A); for higher ratio of pGSK3b/GSK3b than PBS mice: upper third of nasal cavity, five days/week for four weeks
Method: The study method providing results in FIGS. 1A and 1B comprised normal C57 mice which were treated with DFO by administration to the upper third of the nasal cavity, thereby delivering the DFO directly to the CNS by bypassing the blood-brain barrier. Treatment groups consisted of 1% DFO, 10% DFO and saline. Mice were treated five days/week for four weeks. Mice were then dosed a final time, euthanized after 30 minutes, brain tissues collected an analyzed for biochemical changes. Protein extraction was achieved by homogenization of frozen brain tissues in 5 volumes of ice-cold RIPA buffer supplemented with protease inhibitor cocktail and phosphatase inhibitor cocktail. Homogenates were centrifuged at 20,000×g for 20 minutes at 4C. Supernatant was collected from the cortex, diencephalon and hippocampus and stored at −70C until analysis by western blot and ELISA.

[1] = cited from earlier work
[2] = cited from earlier work; remark: listed apart in the source
[3] = Intranasal delivery of DFO (bound to 59Fe) to rats, tissue concentrations by scintillation counting
Method: Delivery of intranasal DFO to the upper one-third of the nasal cavity has been assessed by administering 6 mg DFO bound to 6 μCi of ^59Fe (as ^59FeCl3) to rats under anesthesia. The IN dose in 60 μL was administered as 6 μL drops over twenty minutes. Following delivery, tissues were removed for analysis.

Row | SMILES | higher ratio of pGSK3b/GSK3b than PBS mice (GSK3b; 1% DFO) | higher ratio of pGSK3b/GSK3b of 10% DFO mice than 1% DFO mice (GSK3b; 10% DFO versus 1% DFO, intranasal) | higher ratio of pGSK3b/GSK3b than PBS mice (GSK3b; 10% DFO) | typical plasma half-life ([1]; humans, intravenous) | crossing of the blood-brain barrier ([1]; intravenously or systemically administered) | effect of injection of an intravenous bolus [2] | blood concentrations of ferrioxamine ([3]; 5 minute intervals from dosing up to 25 minutes post-dose) | labeled ferrioxamine in brain by scintillation counting ([3]; intranasal 6 mg DFO bound to 6 uCi 59Fe)
1 | CC(=O)N(O)CCCCCNC(=O)CCC(=O)N(O)CCCCCNC(=O)CCC(=O)N(O)CCCCCN [DFO, deferoxamine] | 99.8% | 57.4% | 214% | less than 10 minutes | does not efficiently or effectively cross the blood-brain barrier | acute hypotension | – | –
2 | CC(=O)N([O-])CCCCCNC(=O)CCC(=O)N([O-])CCCCCNC(=O)CCC(=O)N([O-])CCCCCN.[Fe+3] [ferrioxamine] | – | – | – | – | – | – | quite low | detected throughout the brain
